Results published in ChEMBL document CHEMBL1201862, “PubChem BioAssay data set” (2004).
The source made the active and inactive calls.

Key:
[1] = target: Cytochrome P450 2D6 (Homo sapiens, UniProt P10635);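 note: CYP2D6 member of a cytochrome P450 panel assay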
[2] = target: T1, RNA-binding protein pos-1 (Caenorhabditis elegans, UniProt G5EF15); test: disruptors of C. elegans POS-1 RNA interaction – biochemical, fluorescence polarization, dose response (AID 1964);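 note: purified POS-1 fused to maltose binding protein made in E. coli; potency of compounds blocking POS-1 binding to fluorescent RNA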
T1 sequence (G5EF15 whole entry): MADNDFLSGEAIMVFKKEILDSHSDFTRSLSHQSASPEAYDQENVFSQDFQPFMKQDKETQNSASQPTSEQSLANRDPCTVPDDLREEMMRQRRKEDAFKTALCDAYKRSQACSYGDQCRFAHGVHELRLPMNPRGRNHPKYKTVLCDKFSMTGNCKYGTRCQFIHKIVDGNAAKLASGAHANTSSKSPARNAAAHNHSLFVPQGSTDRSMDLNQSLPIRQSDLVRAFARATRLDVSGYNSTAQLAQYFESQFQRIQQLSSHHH

[3] = system: Streptococcus sp. 'group A'; test: Streptococcus pyogenes SK(-)GAS viability under kanamycin – luminescence, BacTiterGlo, confirmation, counter-screen for streptokinase expression inhibitor project, dose response (AID 1900); assay type: functional, organism-based
[4] = target: T2, Zinc finger protein mex-5 (Caenorhabditis elegans, UniProt Q9XUB2); test: potency of MEX-5 RNA-binding blockers – biochemical, C. elegans, fluorescence polarization, dose response (AID 1960)
T2 sequence (Q9XUB2 whole entry): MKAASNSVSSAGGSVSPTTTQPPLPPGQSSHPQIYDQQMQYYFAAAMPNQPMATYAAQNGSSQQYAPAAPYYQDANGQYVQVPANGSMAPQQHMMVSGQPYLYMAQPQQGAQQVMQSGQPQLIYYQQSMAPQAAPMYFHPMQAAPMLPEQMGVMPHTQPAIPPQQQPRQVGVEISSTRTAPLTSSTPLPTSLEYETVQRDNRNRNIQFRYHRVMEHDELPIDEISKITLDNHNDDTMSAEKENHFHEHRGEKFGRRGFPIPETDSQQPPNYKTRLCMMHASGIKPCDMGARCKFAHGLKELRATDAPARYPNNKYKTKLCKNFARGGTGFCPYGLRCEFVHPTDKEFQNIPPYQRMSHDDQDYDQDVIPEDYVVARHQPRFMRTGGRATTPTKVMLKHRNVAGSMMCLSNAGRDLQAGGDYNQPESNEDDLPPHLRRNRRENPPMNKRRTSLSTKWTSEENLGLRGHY

[5] = target: T3, Streptokinase A (Streptococcus pyogenes serotype M1, UniProt P10520); test: viability-normalized secreted streptokinase activity reduction – plasminogen activation absorbance, OD405, dose response (AID 1914); assay type: functional, Streptococcus pyogenes M1 GAS;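 note: secreted streptokinase activity via plasminogen activation per viability signal from cell pellet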
T3 sequence (P10520 whole entry): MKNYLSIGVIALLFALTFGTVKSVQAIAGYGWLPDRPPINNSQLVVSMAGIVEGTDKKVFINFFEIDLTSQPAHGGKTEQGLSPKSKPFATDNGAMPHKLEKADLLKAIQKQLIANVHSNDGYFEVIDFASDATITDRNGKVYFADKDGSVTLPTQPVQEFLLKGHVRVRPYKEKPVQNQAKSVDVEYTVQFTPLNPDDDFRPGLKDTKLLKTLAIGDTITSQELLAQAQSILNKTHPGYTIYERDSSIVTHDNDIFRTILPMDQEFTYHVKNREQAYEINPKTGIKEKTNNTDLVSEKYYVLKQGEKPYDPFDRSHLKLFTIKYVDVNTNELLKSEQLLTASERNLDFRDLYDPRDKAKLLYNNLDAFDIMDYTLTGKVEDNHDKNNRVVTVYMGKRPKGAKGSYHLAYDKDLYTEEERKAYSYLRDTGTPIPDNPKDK

[6] = system: Streptococcus; test: GAS UMAA2166 growth inhibition – luminescence, BacTiterGlo, counter-screen for streptokinase expression inhibitor project, dose response (AID 1915); assay type: functional, organism-based;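 note: potency for reduction of bacterial viability or growth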
[7] = target: Neurotensin receptor type 1 (Homo sapiens, UniProt P30989); assay type: functional;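 note: Image-based confirmatory dose-response assay measuring agonist activity at NTR1; NTR1-expressing U2OS osteosarcoma cells imaged for beta-arrestin GFP spot formation; agonist potency where compounds increase beta-arrestin recruitment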
[8] = Counterscreen for IDE inhibitors: Luminescence-based cell-based high throughput dose response assay to identify compounds that are cytotoxic to HEK cells. [Related pubchem assays: 434962 (Primary screen (IDE inhibitors in singlicate)), 449730 (Counterscreen (Cytotoxicity in triplicate)), 435028 (Confirmation (IDE inhibitors in triplicate)) …; assay type: functional; details: HEK293
[9] = target: T4, Insulin-degrading enzyme (Homo sapiens, UniProt P14735); test: Dose Response: Fluorescence polarization-based cell-based high throughput dose response assay for inhibitors of insulin-degrading enzyme (IDE). [Related pubchem assays: 434962 (Primary screen (IDE inhibitors in singlicate)), 449730 (Counterscreen (Cytotoxicity in triplicate)), 435028 (Confirmation (IDE inhibitors in triplicate)), 434984 (Summary …; assay type: functional
T4 sequence (P14735 whole entry): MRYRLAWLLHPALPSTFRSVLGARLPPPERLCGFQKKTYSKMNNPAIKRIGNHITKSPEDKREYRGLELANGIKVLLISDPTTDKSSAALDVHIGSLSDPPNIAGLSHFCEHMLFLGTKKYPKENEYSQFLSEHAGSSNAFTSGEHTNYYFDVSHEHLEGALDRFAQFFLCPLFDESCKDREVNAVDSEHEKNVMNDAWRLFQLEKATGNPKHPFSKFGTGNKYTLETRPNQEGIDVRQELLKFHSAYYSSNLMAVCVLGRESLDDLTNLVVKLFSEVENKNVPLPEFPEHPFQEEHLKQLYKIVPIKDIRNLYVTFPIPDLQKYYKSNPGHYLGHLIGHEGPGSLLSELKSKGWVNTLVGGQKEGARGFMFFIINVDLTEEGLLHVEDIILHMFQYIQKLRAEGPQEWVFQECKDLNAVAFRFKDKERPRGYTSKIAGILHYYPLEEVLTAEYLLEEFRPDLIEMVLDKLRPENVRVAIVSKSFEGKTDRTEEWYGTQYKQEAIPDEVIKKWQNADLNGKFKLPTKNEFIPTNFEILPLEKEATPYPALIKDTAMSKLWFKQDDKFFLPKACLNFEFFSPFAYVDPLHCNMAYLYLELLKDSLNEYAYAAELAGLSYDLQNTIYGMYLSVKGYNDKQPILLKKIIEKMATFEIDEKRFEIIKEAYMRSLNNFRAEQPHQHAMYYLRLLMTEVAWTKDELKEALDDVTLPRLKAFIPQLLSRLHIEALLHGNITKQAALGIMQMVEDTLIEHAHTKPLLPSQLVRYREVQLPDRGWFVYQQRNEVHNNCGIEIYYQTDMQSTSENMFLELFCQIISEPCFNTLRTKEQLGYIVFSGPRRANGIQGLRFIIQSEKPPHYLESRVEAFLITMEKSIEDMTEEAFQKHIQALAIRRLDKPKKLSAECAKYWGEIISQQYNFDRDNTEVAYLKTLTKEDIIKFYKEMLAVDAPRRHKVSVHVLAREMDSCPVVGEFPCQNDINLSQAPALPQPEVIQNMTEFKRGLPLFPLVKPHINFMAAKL

[10] = HEK-293T cell viability reduction – luminescence, B-cell screen hits, cytotoxicity control for BCR NF-kB inhibitor project, dose response (AID 489021); assay type: functional, cell-based;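 note: HEK-293T cells carrying an NF-kB luciferase reporter; cells exposed to compound for about 14 hours before viability readout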
[11] = target: Photoreceptor-specific nuclear receptor (Homo sapiens, UniProt Q9Y5X4); assay type: functional;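 note: potency for compounds that break the NR2E3 corepressor complex and count as activators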
Chain of Photoreceptor-specific nuclear receptor (Q9Y5X4 whole entry): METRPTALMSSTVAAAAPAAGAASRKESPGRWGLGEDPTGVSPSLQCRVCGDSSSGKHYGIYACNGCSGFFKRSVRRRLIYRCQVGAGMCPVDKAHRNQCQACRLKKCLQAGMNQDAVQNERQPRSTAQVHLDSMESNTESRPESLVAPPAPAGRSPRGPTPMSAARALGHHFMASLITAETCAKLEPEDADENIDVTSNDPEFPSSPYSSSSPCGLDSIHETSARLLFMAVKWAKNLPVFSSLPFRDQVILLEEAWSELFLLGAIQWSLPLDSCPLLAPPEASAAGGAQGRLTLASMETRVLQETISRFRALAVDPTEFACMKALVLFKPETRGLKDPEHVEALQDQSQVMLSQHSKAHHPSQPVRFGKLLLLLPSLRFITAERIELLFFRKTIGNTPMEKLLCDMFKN

[12] = target: Peroxisome proliferator-activated receptor gamma/Nuclear receptor coactivator 1 (Homo sapiens, UniProt P37231); test: (§1) TR-FRET dose response biochemical High Throughput Screening assay for agonists of the steroid receptor coactivator 1 (SRC-1) recruitment by the peroxisome proliferator-activated receptor gamma (PPAR gamma): non-selective agonists. [Related pubchem assays (depositor defined):AID1300, AID1808, AID504735, AID631]; assay type: protein assay
Chain of Peroxisome proliferator-activated receptor gamma/Nuclear receptor coactivator 1 (P37231 whole entry): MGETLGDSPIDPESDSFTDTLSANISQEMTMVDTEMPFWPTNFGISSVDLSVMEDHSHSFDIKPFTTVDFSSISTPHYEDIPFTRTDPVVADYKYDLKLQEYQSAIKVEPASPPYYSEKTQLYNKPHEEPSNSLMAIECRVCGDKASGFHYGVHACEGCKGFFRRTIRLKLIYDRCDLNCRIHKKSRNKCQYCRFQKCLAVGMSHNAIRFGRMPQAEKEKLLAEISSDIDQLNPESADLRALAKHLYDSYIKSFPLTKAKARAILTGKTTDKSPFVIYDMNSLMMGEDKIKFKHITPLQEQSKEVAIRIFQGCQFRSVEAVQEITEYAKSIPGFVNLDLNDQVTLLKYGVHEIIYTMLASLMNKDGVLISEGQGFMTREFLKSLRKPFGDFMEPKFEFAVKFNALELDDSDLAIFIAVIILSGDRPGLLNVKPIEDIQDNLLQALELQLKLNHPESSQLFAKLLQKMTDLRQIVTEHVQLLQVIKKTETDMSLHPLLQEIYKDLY
Chain of Peroxisome proliferator-activated receptor gamma/Nuclear receptor coactivator 1 (Q15788 whole entry, further chain): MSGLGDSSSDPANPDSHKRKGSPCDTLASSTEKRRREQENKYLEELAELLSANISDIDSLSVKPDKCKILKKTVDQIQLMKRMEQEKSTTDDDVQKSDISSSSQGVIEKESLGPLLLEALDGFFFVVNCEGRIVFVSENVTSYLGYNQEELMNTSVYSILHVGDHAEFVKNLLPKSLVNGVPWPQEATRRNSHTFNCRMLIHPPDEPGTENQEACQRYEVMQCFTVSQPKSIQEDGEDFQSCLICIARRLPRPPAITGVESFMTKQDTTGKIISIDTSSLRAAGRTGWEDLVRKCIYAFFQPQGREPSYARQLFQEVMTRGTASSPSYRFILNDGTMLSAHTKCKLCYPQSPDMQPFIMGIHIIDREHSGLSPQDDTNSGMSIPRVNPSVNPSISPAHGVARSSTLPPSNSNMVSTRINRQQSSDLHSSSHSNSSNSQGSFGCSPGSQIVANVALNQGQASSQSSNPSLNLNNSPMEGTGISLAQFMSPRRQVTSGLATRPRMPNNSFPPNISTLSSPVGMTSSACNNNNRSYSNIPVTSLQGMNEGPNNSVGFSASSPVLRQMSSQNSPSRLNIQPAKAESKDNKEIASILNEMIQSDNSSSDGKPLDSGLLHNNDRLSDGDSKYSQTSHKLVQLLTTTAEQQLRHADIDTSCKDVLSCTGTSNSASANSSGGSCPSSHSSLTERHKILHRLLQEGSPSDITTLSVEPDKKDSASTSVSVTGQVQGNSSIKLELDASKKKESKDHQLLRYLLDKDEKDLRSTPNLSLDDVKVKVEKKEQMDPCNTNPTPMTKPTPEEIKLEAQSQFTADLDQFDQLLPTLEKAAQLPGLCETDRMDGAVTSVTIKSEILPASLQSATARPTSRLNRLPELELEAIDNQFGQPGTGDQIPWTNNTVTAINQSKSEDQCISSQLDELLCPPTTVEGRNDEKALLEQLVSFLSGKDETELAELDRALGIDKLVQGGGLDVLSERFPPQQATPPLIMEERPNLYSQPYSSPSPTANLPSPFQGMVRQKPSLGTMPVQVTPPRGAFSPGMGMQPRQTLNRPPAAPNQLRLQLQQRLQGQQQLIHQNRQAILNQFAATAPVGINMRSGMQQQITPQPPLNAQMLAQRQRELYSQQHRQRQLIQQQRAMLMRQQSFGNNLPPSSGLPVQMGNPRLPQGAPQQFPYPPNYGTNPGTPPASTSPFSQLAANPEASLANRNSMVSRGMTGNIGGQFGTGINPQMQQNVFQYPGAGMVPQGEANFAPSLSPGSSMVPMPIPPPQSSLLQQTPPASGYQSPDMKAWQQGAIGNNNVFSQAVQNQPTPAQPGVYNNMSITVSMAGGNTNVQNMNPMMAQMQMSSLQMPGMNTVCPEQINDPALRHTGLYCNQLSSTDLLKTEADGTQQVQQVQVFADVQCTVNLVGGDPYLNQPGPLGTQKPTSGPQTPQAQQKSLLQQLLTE

[13] = target: Peroxisome proliferator-activated receptor gamma/Nuclear receptor coactivator 3 (Homo sapiens, UniProt P37231); test: as §1, with “3 (SRC-3)” for “1 (SRC-1)”, “assays: 1301 (Confirmation screen.), 1048 (Primary screen.)]” for “assays (depositor defined):AID1300, AID1808, AID504735, AID631]”; assay type: functional
[14] = target: Peroxisome proliferator-activated receptor gamma/Nuclear receptor coactivator 2 (Homo sapiens, UniProt P37231); test: TR-FRET dose response biochemical High Throughput Screening assay for agonists of the steroid receptor coactivator 2 (SRC-2) recruitment by the peroxisome proliferator-activated receptor gamma (PPAR gamma): non-selective agonists. [Related pubchem assays: 1297, 1032 ]; assay type: functional
Chain of Peroxisome proliferator-activated receptor gamma/Nuclear receptor coactivator 2 (P37231 whole entry): as the sequence (P37231 whole entry) above
Chain of Peroxisome proliferator-activated receptor gamma/Nuclear receptor coactivator 2 (Q15596 whole entry, further chain): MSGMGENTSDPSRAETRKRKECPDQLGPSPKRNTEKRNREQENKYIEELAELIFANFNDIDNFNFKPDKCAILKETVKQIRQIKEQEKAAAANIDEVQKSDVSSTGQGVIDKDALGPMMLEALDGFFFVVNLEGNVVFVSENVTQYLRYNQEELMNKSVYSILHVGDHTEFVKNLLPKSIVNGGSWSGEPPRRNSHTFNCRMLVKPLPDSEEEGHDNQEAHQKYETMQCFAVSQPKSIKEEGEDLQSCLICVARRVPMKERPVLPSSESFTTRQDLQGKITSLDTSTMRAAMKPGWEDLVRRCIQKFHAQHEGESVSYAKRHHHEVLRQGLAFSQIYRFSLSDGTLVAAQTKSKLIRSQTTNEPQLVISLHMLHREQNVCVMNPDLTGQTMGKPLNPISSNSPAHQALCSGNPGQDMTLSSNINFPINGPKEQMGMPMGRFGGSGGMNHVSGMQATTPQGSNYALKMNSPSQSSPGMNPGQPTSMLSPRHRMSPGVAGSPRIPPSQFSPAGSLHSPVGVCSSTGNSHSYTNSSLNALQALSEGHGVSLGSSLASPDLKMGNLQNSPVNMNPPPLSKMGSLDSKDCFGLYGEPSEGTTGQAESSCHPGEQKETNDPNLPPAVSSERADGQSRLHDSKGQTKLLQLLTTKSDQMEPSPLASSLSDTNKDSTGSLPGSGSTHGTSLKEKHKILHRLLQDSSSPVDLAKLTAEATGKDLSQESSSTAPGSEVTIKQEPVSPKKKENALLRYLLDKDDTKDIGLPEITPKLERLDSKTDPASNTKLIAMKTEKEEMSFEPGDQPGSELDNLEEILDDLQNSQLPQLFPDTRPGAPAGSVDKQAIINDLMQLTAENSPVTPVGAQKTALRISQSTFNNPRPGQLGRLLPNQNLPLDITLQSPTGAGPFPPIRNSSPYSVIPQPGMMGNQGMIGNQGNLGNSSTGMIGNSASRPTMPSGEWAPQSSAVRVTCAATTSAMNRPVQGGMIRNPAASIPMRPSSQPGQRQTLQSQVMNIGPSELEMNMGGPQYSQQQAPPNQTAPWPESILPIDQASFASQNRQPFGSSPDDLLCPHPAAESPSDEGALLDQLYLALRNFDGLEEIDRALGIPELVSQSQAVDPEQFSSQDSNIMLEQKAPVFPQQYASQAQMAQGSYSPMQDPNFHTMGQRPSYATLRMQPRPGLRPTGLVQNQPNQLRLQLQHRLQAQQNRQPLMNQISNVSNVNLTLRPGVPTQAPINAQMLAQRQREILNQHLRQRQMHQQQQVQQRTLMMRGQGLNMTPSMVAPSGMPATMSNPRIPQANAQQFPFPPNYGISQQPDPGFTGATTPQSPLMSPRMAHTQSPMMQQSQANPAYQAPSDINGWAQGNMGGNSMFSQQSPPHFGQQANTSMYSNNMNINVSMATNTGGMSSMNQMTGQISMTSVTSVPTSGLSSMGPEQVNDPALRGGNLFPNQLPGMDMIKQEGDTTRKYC

[15] = target: Peroxisome proliferator-activated receptor gamma/Nuclear receptor corepressor 2 (Homo sapiens, UniProt P37231+Q9Y618); assay type: functional

Chain of Cytochrome P450 2D6 (P10635 whole entry, the tested form may be a part): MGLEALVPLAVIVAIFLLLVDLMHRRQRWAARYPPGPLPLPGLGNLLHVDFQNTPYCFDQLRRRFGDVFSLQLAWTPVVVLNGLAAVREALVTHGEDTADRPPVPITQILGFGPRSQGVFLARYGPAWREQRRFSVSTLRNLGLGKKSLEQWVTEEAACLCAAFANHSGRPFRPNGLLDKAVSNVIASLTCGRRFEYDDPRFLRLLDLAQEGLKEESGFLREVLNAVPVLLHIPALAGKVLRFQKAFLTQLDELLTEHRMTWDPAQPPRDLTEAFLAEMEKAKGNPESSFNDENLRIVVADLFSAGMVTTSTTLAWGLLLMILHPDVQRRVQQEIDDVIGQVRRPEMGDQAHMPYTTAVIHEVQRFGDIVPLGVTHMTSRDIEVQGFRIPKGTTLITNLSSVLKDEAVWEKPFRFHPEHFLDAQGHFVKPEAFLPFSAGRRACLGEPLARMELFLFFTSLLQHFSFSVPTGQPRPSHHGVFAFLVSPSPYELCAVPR

Nc1ccc(S(=O)(=O)NCCS(=O)(=O)O)cc1
AC50 [1]: inconclusive

COc1ccc(OC)c(N/C=C2/C(=O)NC(=S)N(Cc3ccccc3)C2=O)c1
EC50 [2]: > 300 µM (not active)
EC50 [3]: > 150 µM (not active)
EC50 [4]: > 300 µM (inconclusive)
EC50 [5]: > 150 µM (not active)
EC50 [6]: > 150 µM (not active)
EC50 [7]: 38.3 µM (inactive)

CCOC(=O)N1CCN(c2[nH]cnc3c4cc(OC)ccc4nc2-3)CC1
IC50 [8]: 18.4 µM (not active)
IC50 [9]: 9.15 µM (active)
IC50 [10]: 56.9 µM (inactive)

O=C(C1=C(O)C(=O)N(CCc2ccccc2)C1c1ccncc1)c1cc2ccccc2o1 (stereo not given)
IC50 [11]: > 39.8 µM (not active)
EC50 [12]: > 79.4 µM (inactive)
EC50 [13]: > 79.4 µM (not active)
EC50 [14]: 26.1 µM (not active)
IC50 [15]: 7.02 µM (active)
